Source: patent publication US4414219A, “Antidepressant (α-phenyl-2-tolyl)azacycloalkanols and derivatives thereof” (American Hoechst Corporation, priority 1980, dated 1983)
Where a name gives a salt, the structure may show the parent alone. Read-outs that look alike come from different tables or passages of the source.

How the values were obtained:
Assay type in all cases: in vivo
[1] = system: tetrabenazine-induced ptosis; experiment: inhibition of tetrabenazine-induced ptosis in mice (antidepressant assay); details: Mus musculus, ip, read-out: ED50 (50% inhibition from the ptosis of tetrabenazine-induced depression)
Excerpt: Thus, for instance, the intraperitoneal dosages at which the following compounds (ED50) effect a 50% inhibition from the ptosis of tetrabenazine-induced depression in mice are:
It is to be noted and stressed at this point that the substitution of a benzyl in the 2- or ortho position of the phenyl ring, in the compounds of the invention, is critical to biological especially antidepressant, activity. Where the benzyl is substituted in the 3- or meta position or the 4- or para position, the corresponding compound is relatively ineffective as compared to the 2-substituted compounds of the invention. In this regard, reference is made to the following Table II which illustrates such criticality in the form of intraperitoneal dosages at which a series (A. B. and C.) of 2-, 3- and 4-substituted compounds effect a 50% inhibition from the ptosis of tetrabenazine-induced depression in mice: […]

[2] = system: 2-phenyl-1,4-quinone induced writhing; experiment: 2-phenyl-1,4-quinone induced writhing assay in mice (analgesia); details: for inhibition of writhing: 60 mg/kg p.o., comparison
Experimental: Compounds of the invention are also useful as analgesic agents due to their ability to alleviate pain in mammals. […] Exptl. Biol. Med., 95, 729 (1957)]. Thus, for example, a 50% inhibition in writhing is effected by the oral administration of 28.4 mg/kg of body weight of 4-acetoxy-1-methyl-4-(α-phenyl)-2-tolyl)piperidine hydrochloride. Other representative compounds of the invention and their respective ability to inhibit said writhing is shown below in Table III.

[3] = system: supra maximal electro shock (SES); experiment: protection from supra maximal electro shock (SES), anticonvulsant
Experimental: Compounds of the present invention are further useful as anticonvulsant agents for mammals, as determined by the method of Woodbury, L. A. and Davenport, V. D., in Arch, Int. Pharmacodynam, Vol. 92, (1952) at pages 97-107. For example, the intraperitoneal dose of 17.6 mg/kg of body weight of 1-methyl-4-[-(4,fluorophenyl)-2-tolyl]-1,2,3,6-tetrahydropyridine hydrobromide produces an 83% protection from the effect of supra maximal electro shock (SES). Intraperitoneal doses of other representative compounds of the invention and their ability to protect from the effect of SES is shown below in Table IV.

toxicity of amphetamine = experiment: Amphetamine Aggregation Toxicity Reversal Assay (tranquilizer); details: 20 mg/kg oral; against 15 mg/kg intraperitoneal amphetamine sulfate; aggregated mice, survival up to 3 hours
Excerpt: Compounds of the invention are still further useful as tranquilizers due to their ability to reverse toxicity of amphetamine as measured in the Amphetamine Aggregation Toxicity Reversal Assay [Chance, M. R. A., J. Pharmacol. Exper. Therap. 87, pp. 214-219 (1946) and Proctor, C. D., Putts, J. T., Lundy, R. O., and Greenfield, E. J., Arch. Int. Pharmacodynam. 163, (1), pp. 79-86 (1966)]. In our assay "aggregated mice" mean 5 mice/group placed in such a manner as to yield 20 cm^2 of floor space per mouse. Animals are aggregated immediately after injection with amphetamine sulfate and then checked for survival up to 3 hours. For example, under these conditions an oral dosage of 20 mg/kg of body weight of 1-[3-(4-fluorobenzoyl)propyl]-4-(α-phenyl-2-tolyl)piperidine effects a 60% protection against the intraperitoneal dose of 15 mg/kg of amphetamine sulfate.

[4] = system: tetrabenazine-induced ptosis; experiment: inhibition of tetrabenazine-induced ptosis in mice (antidepressant assay); details: 25 mg/kg intraperitoneal
[5] = intraperitoneal, mice, Table II (2-, 3- and 4-substituted series A, B, C)

Compound: CN1CC=C(c2cccc(Cc3ccccc3)c2)CC1 [1-methyl-4-(α-phenyl-3-tolyl)-1,2,3,6-tetrahydropyridine, reference compound]
- ED50 [1]: > 50 mg/kg

Compound: CC(=O)Oc1ccccc1C(=O)O [aspirin, reference compound]
- inhibition of writhing [2]: 34%

Compound: CN1CCC(O)(c2ccccc2Cc2ccccc2)CC1 [1-methyl-4-(α-phenyl-2-tolyl)-4-piperidinol]
- % Inhibition in Writhing ([2]; 50.0 mg/kg po, mice): 41%
- ED50 [1]: 8 mg/kg
- % SES Protection ([3]; 36 mg/kg intraperitoneal): 50%

Compound: Br.CN1CC=C(c2ccccc2Cc2ccc(F)cc2)CC1 [4-[α-(4-fluorophenyl)-2-tolyl]-1-methyl-1,2,3,6-tetrahydropyridine hydrobromide]
- ED50 [1]: 8 mg/kg
- protection from the effect of supra maximal electro shock (SES) ([3]; 17.6 mg/kg intraperitoneal): 83%

Compound: Cl.c1ccc(Cc2cccc(C3CCNCC3)c2)cc1 [4-(α-phenyl-3-tolyl)piperidine hydrochloride, reference compound]
- ED50 [1, 5]: > 20 mg/kg

Compound: CCC(=O)OC1(c2ccccc2Cc2ccccc2)CCN(C)CC1.Cl [1-methyl-4-(α-phenyl-2-tolyl)-4-propionyloxypiperidine hydrochloride]
- % Inhibition in Writhing ([2]; 8.9 mg/kg sc, mice): 50%
- % SES Protection ([3]; 50 mg/kg intraperitoneal): 50%

Compound: CN1CCC(c2ccc(Cc3ccccc3)cc2)CC1.O=C(O)C(=O)O [1-methyl-4-(α-phenyl-4-tolyl)piperidine oxalate, reference compound]
- ED50 [1, 5]: > 20 mg/kg

Compound: CN1CCC(O)(c2ccccc2Cc2ccc(F)cc2)CC1 [1-methyl-4-[α-(4-fluorophenyl)-2-tolyl]-4-piperidinol]
- ED50 [1]: 8.2 mg/kg
- % SES Protection ([3]; 23.3 mg/kg intraperitoneal): 50%

Compound: Cl.OC1(c2ccccc2Cc2ccccc2)CCNCC1 [4-(α-phenyl-2-tolyl)-4-piperidinol hydrochloride]
- ED50 ([1]; intraperitoneal, mice, Table I): 5.4 mg/kg

Compound: CN1CC=C(c2ccc(Cc3ccccc3)cc2)CC1 [1-methyl-4-(α-phenyl-4-tolyl)-1,2,3,6-tetrahydropyridine, reference compound]
- ED50 [1]: > 50 mg/kg

Compound: C1=C(c2ccccc2Cc2ccccc2)CCNC1 [4-(α-phenyl-2-tolyl)-1,2,3,6-tetrahydropyridine]
- % Inhibition in Writhing ([2]; 7.8 mg/kg sc, mice): 50%
- ED50 [1]: 2.1 mg/kg

Compound: Br.COc1ccc(Cc2ccccc2C2=CCN(C)CC2)cc1 [1-methyl-4-[α-(4-methoxyphenyl)-2-tolyl]-1,2,3,6-tetrahydropyridine hydrobromide]
- % SES Protection ([3]; 25.6 mg/kg intraperitoneal): 50%

Compound: Cl.c1ccc(Cc2ccc(C3CCNCC3)cc2)cc1 [4-(α-phenyl-4-tolyl)piperidine hydrochloride, reference compound]
- ED50 [1, 5]: > 20 mg/kg

Compound: Cl.c1ccc(Cc2ccccc2C2CCNCC2)cc1 [4-(α-phenyl-2-tolyl)piperidine hydrochloride]
- ED50 [1, 5]: 1.7 mg/kg

Compound: CCC(=O)O[C@](Cc1ccccc1)(c1ccccc1)[C@H](C)CN(C)C [propoxyphene hydrochloride, reference compound]
- inhibition of writhing [2]: 50%

Compound: Br.c1ccc(CCN2CCC(c3ccccc3Cc3ccccc3)CC2)cc1 [1-phenethyl-4-(α-phenyl-2-tolyl)piperidine hydrobromide]
- % SES Protection ([3]; 37.5 mg/kg intraperitoneal): 50%

Compound: CN1CCC(c2ccccc2Cc2ccccc2)CC1.Cl [1-methyl-4-(α-phenyl-2-tolyl)piperidine hydrochloride]
- % Inhibition in Writhing ([2]; 61.7 mg/kg po, mice): 50%
- ED50 [1, 5]: 2.5 mg/kg
- % SES Protection ([3]; 50 mg/kg intraperitoneal): 83%

Compound: CN1CCC(OC(=O)c2ccccc2)(c2ccccc2Cc2ccccc2)CC1.Cl [4-benzoyloxy-1-methyl-4-(α-phenyl-2-tolyl)piperidine hydrochloride]
- % Inhibition in Writhing ([2]; 12.8 mg/kg sc, mice): 50%

Compound: O=C(CCCN1CCC(c2ccccc2Cc2ccccc2)CC1)c1ccc(F)cc1 [1-[3-(4-fluorobenzoyl)propyl]-4-(α-phenyl-2-tolyl)piperidine]
- protection against amphetamine sulfate toxicity (toxicity of amphetamine): 60%

Compound: ON1CCC(c2ccccc2Cc2ccccc2)CC1 [1-hydroxy-4-(α-phenyl-2-tolyl)piperidine]
- ED50 ([1]; intraperitoneal, mice, Table I): 3 mg/kg

Compound: CC(=O)OC1(c2ccccc2Cc2ccccc2)CCN(C)CC1.Cl [4-acetoxy-1-methyl-4-(α-phenyl-2-tolyl)piperidine hydrochloride]
- inhibition in writhing ([2]; 28.4 mg/kg oral, mice): 50%
- inhibition from the ptosis of tetrabenazine-induced depression [4]: 40%

Compound: CN1CC=C(c2ccccc2Cc2ccccc2)CC1 [1-methyl-4-(α-phenyl-2-tolyl)-1,2,3,6-tetrahydropyridine]
- ED50 [1]: 8.8 mg/kg

Compound: Cl.OC1(c2ccccc2Cc2ccccc2)CCN(Cc2ccccc2)C1 (stereo not drawn) [1-benzyl-3-(α-phenyl-2-tolyl)-3-pyrrolidinol hydrochloride]
- % SES Protection ([3]; 50 mg/kg intraperitoneal): 83%

Compound: CN1CCC(c2cccc(Cc3ccccc3)c2)CC1.O=C(O)C(=O)O [1-methyl-4-(α-phenyl-3-tolyl)piperidine oxalate, reference compound]
- ED50 [1, 5]: > 20 mg/kg
